Columns and labels:
JAK3 = target: T1, JAK3 (Homo sapiens, UniProt P52333); test: Biochemical potency on JAK3, TR-FRET (LANCE Ultra kinase assay); settings: ATP corresponding to Km; cell-free; read-out: JAK3 inhibitory activity (pIC50) (converted)
T1 sequence (P52333 1-1124): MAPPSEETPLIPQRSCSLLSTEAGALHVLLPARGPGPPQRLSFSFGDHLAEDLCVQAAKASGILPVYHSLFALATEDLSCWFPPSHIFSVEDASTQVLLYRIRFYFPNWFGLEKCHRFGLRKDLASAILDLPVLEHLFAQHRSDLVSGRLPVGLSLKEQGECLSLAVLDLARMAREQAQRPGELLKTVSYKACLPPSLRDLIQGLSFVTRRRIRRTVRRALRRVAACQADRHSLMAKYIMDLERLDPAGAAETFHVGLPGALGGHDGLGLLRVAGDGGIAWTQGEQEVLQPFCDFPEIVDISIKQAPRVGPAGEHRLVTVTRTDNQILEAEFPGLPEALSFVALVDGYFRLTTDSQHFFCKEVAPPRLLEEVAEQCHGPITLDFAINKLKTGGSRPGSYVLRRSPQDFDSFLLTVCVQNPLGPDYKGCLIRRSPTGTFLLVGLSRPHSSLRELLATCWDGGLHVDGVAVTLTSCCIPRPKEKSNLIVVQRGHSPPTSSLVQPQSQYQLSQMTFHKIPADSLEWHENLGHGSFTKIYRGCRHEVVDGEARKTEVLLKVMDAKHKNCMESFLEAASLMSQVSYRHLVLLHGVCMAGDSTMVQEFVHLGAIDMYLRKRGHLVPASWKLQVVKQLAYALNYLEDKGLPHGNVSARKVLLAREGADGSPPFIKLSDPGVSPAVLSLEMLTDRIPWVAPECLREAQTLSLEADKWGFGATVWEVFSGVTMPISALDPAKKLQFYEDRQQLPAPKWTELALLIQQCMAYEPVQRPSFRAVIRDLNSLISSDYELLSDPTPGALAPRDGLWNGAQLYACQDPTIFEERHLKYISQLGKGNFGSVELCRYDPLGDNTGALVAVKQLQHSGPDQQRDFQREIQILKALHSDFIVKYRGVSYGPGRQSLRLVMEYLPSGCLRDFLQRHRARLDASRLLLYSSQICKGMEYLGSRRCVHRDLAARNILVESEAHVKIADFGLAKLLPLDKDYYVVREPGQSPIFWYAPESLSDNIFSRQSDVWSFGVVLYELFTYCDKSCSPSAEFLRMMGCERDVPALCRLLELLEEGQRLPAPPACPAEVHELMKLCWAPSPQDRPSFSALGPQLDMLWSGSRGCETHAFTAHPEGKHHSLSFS
Experimental: (§1) The objective of this study was to assess the capability of compounds to inhibit all 4 JAK isoforms activity in a cell-free environment. Assay for JAK 1, JAK 2, JAK 3 and TYK2 were performed by Time-resolved fluorescence resonance energy transfer (TR-FRET) technology. It consists in the interaction of two labelled binding partners detected by the energy transfer from an excited donor to an acceptor dye and measurement of light emission by the acceptor dye. LANCE Ultra kinase assay was used. In presence of JAK 1, JAK 2, JAK 3 and TYK2 kinases and ATP (corresponding to Km), the ULight peptide substrate (LANCE Ulight-JAK-1 (Tyr1023) Peptide, Perkin Elmer, TRF0121) is phosphorylated. It is then captured by Eu-anti-phospho-substrate antibody (LANCE Eu-W1024 Anti-phosphotyrosine (PT66), Perkin Elmer, AD0069), which bring the Eu-chelate donor and ULight acceptor dyes into close proximity. Upon excitation at 320 nm, the Eu-chelate transfers its energy to the ULight dye, resulting in a fluorescent light emission at 665 nm.
(§2) Serial dilutions of compounds in pure DMSO are prepared from 10 mM DMSO stock solutions. Compounds were tested in 384-well plate for 11 consecutive 5-fold dilutions starting from 20 μM highest concentration (20 μM-[…]). 200 nL of compound were transferred from mother plate to test plate by using Mosquito (TTP labtech). Assay was performed in 384-well Perkin Elmer test plate in 20 μL assay volume (kinase reaction) and 40 μL total volume (stopping reagent and antibody detection reagents). In 10 μL of substrate solution (peptide+ATP) 30/50/20/10 nM of peptide and 20/0.7/0.2/12 μM of ATP were added for JAK 1, JAK 2, JAK 3 and TYK2 respectively. 10 μL of enzyme solution was added to kinase reaction at these concentrations: 0.15/0.083/0.025/0.144 ng/μL of JAK 1, JAK 2, JAK 3 and TYK2 respectively. After shaking and 1.5 h of incubation at r.t., 20 μL of Stop (10 μL EDTA) and Detection mixture (10 μL Europium-anti-phospho antibody, final: 0.5 nM) were added. Reading was performed after 1 h of incubation on a En Vision 2104 reader (Perkin Elmer).
(§3) Calculation of IC50 data, curves and QC analysis was performed by using Excel tool and GraphPadPrism software, v9. Briefly, individual concentration-effect curves are generated by plotting the logarithm of the tested concentration of tested compounds (X) vs. corresponding percent inhibition values (Y) using least squares (ordinary) fit. Best fit IC50 values are calculated using Log (inhibitor) vs. normalized response—Variable slope equation, where Y=100/(1+10^((LogIC50−X)*HillSlope)). QC criteria parameters (Z′, S:B, R2, HillSlope) were checked for every IC50 curve. Calculation of IC50 data, curves and QC analysis were made using Excel tools and GraphPadPrism software. QC criteria parameters: Z′≥0.5, Hill Slope range 0.5 to 5, S:B>2.

[1] = test system: pSTAT6 in BEAS-2B human cell line; test: Inhibition of IL-13 induced pSTAT6 in BEAS; type: cell-based; settings: for IC50: Homo sapiens, BEAS-2B, 0.5 h, parent compound; for IC50 / pIC50 (BEAS) predicted acid metabolite: IL-13 trigger, 30 min; for Fold difference parent vs predicted acid metabolite: ratio=IC50 predicted acid metabolite/IC50 ester
Experimental: BEAS-2B human cell line was seeded (100.000 cells/well) and incubated for 48 h at 37° C., 5% CO2, 95% humidity. Compounds were added and incubated 30 min followed by IL-13 as trigger. After 30 min incubation, cells were lysed and pSTAT6 determined by Fastscan phospho-stat6 (Tyr641) sandwich ELISA kit (cell signaling). Inhibitors were tested at 11 consecutive 5-fold dilutions starting from 10 μM (10 μM-[…]) in duplicate. Calculation of IC50 data, curves and QC analysis were made using Excel tools and GraphPadPrism software. QC criteria parameters: Z′≥0.35, Hill Slope range 0.5 to 5, S:B>2.

TYK2 = TYK2 (Homo sapiens, UniProt P29597); test: Biochemical potency on Tyk2, TR-FRET (LANCE Ultra kinase assay); settings: ATP corresponding to Km; cell-free; read-out: TYK2 inhibitory activity (pIC50) (converted)
TYK2, sequence (P29597 whole entry): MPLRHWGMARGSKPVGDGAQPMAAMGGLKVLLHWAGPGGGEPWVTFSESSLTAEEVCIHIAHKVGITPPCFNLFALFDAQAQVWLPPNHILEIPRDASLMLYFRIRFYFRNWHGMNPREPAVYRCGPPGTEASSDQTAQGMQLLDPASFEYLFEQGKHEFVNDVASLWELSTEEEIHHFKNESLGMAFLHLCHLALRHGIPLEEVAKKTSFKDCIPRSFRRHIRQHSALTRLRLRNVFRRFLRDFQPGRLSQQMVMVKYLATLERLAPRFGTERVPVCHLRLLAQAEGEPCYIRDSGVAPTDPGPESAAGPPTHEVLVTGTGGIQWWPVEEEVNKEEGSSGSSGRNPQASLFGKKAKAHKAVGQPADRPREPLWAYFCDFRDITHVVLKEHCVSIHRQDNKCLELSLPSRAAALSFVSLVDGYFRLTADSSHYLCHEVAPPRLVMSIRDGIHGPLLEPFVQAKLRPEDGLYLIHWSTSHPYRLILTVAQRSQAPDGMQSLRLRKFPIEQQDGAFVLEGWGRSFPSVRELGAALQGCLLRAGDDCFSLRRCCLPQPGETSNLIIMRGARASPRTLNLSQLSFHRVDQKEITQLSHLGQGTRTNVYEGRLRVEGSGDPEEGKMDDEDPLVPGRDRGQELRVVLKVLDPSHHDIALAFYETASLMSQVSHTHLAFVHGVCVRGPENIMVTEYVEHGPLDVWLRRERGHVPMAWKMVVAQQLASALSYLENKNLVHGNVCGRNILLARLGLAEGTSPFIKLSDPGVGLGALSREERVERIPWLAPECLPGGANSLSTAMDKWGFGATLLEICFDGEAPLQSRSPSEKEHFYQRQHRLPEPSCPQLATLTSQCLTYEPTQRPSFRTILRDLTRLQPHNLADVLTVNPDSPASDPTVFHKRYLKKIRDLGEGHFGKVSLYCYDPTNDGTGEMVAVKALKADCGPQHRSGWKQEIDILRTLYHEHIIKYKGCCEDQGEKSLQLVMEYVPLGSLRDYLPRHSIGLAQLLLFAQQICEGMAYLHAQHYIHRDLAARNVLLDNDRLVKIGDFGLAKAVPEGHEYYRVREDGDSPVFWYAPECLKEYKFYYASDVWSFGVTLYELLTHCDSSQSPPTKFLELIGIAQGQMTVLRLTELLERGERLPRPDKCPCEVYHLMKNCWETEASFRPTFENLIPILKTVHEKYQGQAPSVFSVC
Experimental: as §1, §2, §3

JAK1 = JAK1 (Homo sapiens, UniProt P23458); test: Biochemical potency on JAK1, TR-FRET (LANCE Ultra kinase assay); settings: ATP corresponding to Km; cell-free; read-out: JAK1 inhibitory activity (pIC50) (converted)
JAK1, sequence (P23458 whole entry): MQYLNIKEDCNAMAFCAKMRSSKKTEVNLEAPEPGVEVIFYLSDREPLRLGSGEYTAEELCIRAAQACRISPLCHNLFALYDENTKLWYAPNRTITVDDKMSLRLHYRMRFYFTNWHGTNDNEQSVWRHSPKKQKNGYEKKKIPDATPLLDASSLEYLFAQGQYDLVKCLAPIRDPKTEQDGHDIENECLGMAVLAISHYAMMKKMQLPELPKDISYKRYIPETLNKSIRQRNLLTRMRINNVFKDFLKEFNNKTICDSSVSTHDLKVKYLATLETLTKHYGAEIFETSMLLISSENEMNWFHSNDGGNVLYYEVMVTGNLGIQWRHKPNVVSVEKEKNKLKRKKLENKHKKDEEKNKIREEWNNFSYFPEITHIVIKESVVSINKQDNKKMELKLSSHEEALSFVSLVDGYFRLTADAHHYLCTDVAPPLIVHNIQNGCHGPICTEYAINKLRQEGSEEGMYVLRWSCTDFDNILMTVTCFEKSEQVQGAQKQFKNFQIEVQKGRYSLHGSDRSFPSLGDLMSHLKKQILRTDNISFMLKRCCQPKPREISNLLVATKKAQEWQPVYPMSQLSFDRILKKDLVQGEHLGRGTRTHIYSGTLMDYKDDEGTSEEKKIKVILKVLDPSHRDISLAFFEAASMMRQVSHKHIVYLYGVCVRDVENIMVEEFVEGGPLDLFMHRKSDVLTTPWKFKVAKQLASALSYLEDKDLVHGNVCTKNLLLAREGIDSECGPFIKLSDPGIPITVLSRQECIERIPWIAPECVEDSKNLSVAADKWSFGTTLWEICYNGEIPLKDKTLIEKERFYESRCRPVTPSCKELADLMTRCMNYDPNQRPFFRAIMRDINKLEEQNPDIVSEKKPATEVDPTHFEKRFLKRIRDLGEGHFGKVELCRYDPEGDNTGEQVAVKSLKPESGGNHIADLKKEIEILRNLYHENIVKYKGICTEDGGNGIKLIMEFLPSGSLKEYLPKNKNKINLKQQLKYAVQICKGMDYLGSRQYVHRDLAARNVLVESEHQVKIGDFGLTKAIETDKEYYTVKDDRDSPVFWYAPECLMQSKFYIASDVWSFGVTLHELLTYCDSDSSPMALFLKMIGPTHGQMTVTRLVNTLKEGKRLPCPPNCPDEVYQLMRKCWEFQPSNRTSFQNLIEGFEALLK
Experimental: as §1, §2, §3

JAK2 = JAK2 (Homo sapiens, UniProt O60674); test: Biochemical potency on JAK2, TR-FRET (LANCE Ultra kinase assay); settings: ATP corresponding to Km; cell-free; read-out: JAK2 inhibitory activity (pIC50) (converted)
JAK2, sequence (O60674 whole entry): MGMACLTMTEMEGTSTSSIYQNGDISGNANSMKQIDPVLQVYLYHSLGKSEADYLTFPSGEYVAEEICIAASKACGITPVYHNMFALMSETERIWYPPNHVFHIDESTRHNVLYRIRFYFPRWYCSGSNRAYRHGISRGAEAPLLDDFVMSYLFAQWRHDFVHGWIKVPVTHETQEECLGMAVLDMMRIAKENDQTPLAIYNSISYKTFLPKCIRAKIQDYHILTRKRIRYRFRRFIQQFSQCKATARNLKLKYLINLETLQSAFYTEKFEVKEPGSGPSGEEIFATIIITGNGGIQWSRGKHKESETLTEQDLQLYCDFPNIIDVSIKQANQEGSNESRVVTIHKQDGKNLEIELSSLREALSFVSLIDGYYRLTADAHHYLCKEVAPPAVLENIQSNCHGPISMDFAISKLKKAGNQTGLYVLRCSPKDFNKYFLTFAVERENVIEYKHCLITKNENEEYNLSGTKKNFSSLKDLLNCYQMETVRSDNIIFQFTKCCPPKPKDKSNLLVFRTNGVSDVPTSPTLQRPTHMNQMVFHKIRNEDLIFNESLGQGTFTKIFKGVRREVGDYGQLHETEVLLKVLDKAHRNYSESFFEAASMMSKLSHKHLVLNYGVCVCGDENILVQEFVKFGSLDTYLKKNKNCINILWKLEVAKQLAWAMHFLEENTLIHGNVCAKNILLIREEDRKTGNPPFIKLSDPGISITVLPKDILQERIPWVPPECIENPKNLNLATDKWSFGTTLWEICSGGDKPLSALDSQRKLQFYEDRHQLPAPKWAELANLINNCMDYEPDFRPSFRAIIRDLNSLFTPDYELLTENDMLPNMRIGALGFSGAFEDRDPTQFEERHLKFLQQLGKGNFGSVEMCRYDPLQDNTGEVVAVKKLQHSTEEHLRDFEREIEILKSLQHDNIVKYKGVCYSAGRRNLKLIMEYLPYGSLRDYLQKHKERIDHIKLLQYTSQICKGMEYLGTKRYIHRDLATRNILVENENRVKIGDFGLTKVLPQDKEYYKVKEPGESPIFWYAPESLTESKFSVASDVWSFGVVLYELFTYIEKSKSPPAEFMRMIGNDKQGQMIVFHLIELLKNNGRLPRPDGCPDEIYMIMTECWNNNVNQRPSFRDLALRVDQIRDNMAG
Experimental: as §1, §2, §3

Compound | pIC50 (BEAS) predicted acid metabolite [1] | other results
COc1cc2c(cc1-n1nc(C(=O)NCCN3CCC(C(=O)O[C@@H]4CN(C)C[C@H]4F)CC3)c3cnc(-c4cnn5cccnc45)cc31)OCCN2 (relative stereo) [Example 51, (3R*,4R*)-4-fluoro-1-methylpyrrolidin-3-yl 1-(2-(1-(6-methoxy-3,4-dihydro-2H-benzo[b][1,4]oxazin-7-yl)-6-(pyrazolo[1,5-a]pyrimidin-3-yl)-1H-pyrazolo[4,3-c]pyridine-3-carboxamido)ethyl)piperidine-4-carboxylate] |  | IC50 (JAK3): ≤ 5.01 nM; IC50 [1]: 5.01 to 50.1 nM; Fold difference parent vs predicted acid metabolite [1]: kkk (200>ratio≥100); IC50 (TYK2): 5.01 to 50.1 nM; IC50 (JAK1): ≤ 5.01 nM; IC50 (JAK2): ≤ 5.01 nM
CCOC(=O)C1CCN(CCNC(=O)c2nn(-c3cc4c(cc3OC)NCCS4)c3cc(-c4cnn5cccnc45)ncc23)CC1 [Example 1, ethyl 1-(2-(1-(6-methoxy-3,4-dihydro-2H-benzo[b][1,4]thiazin-7-yl)-6-(pyrazolo[1,5-a]pyrimidin-3-yl)-1H-pyrazolo[4,3-c]pyridine-3-carboxamido)ethyl)piperidine-4-carboxylate] |  | IC50 (JAK3): ≤ 5.01 nM; IC50 [1]: ≤ 5.01 nM; Fold difference parent vs predicted acid metabolite [1]: kk (100>ratio≥10); IC50 (TYK2): ≤ 5.01 nM; IC50 (JAK1): ≤ 5.01 nM; IC50 (JAK2): ≤ 5.01 nM
COc1cc2c(cc1-n1nc(C(=O)NCCN3CCC(C(=O)O)CC3)c3cnc(-c4cnn5cccnc45)cc31)OCCN2 [Example A1, 1-(2-(1-(6-methoxy-3,4-dihydro-2H-benzo[b][1,4]oxazin-7-yl)-6-(pyrazolo[1,5-a]pyrimidin-3-yl)-1H-pyrazolo[4,3-c]pyridine-3-carboxamido)ethyl)piperidine-4-carboxylic acid, reference compound] | § (pIC50<6.3) | 
COc1cc2c(cc1-n1nc(C(=O)NCCN3CCC(C(=O)O)CC3)c3cnc(-c4cnn5cccnc45)cc31)SCCN2 [Example A2, reference compound] | §§ (7.3>pIC50≥6.3) | 
COc1cc2c(cc1-n1nc(C(=O)NCCN3CC[C@H](C(=O)O)C3)c3cnc(-c4cnn5cccnc45)cc31)OCCN2 [Example A3, reference compound] | § (pIC50<6.3) | 
COc1cc2c(cc1-n1nc(C(=O)NCCN3CC[C@@H](C(=O)O)C3)c3cnc(-c4cnn5cccnc45)cc31)OCCN2 [Example A4, reference compound] | § (pIC50<6.3) | 
COc1cc2c(cc1-n1nc(NC(=O)OCCN3CCC(C(=O)O)CC3)c3cnc(-c4cnn5cccnc45)cc31)SCCN2 [Example A5, reference compound] | §§ (7.3>pIC50≥6.3) | 
COc1cc2c(cc1-n1nc(NC(=O)OCC(=O)O)c3cnc(-c4cnn5cccnc45)cc31)OCCN2 [Example A6, reference compound] | § (pIC50<6.3) | 
COc1cc2c(cc1-n1nc(NC(=O)O[C@H]3C[C@@H](C(=O)O)C3)c3cnc(-c4cnn5cccnc45)cc31)OCCN2 [Example A7, reference compound] | § (pIC50<6.3) | 
COc1cc2c(cc1-n1nc(NC(=O)OCCN3CCC(C(=O)O)CC3)c3cnc(-c4cnn5cccnc45)cc31)OCCN2 [Example A8, reference compound] | § (pIC50<6.3) | 
COc1cc2c(cc1-n1nc(C(=O)O)c3cnc(-c4cnn5cccnc45)cc31)OCCN2 [Example A9, 1-(6-Methoxy-3,4-dihydro-2H-benzo[b][1,4]oxazin-7-yl)-6-(pyrazolo[1,5-a]pyrimidin-3-yl)-1H-pyrazolo[4,3-c]pyridine-3-carboxylic acid, reference compound] | § (pIC50<6.3) | 
COc1cc2c(cc1-n1nc(NC(=O)OCC(=O)O)c3cnc(-c4cnn5cccnc45)cc31)SCCN2 [Example A10, 2-(((1-(6-Methoxy-3,4-dihydro-2H-benzo[b][1,4]thiazin-7-yl)-6-(pyrazolo[1,5-a]pyrimidin-3-yl)-1H-pyrazolo[4,3-c]pyridin-3-yl)carbamoyl)oxy)acetic acid, reference compound] | § (pIC50<6.3) | 
COc1cc2c(cc1-n1nc(C(=O)NCCN3CCC(C(=O)O)CC3)c3cnc(Nc4ncc[nH]c4=O)cc31)OCCN2 [Example A11, reference compound] | § (pIC50<6.3) | 
COc1cc2c(cc1-n1nc(C(=O)NCCN3CCC(CC(=O)O)CC3)c3cnc(-c4cnn5cccnc45)cc31)OCCN2 [Example A12, 2-(1-(2-(1-(6-methoxy-3,4-dihydro-2H-benzo[b][1,4]oxazin-7-yl)-6-(pyrazolo[1,5-a]pyrimidin-3-yl)-1H-pyrazolo[4,3-c]pyridine-3-carboxamido)ethyl)piperidin-4-yl)acetic acid, reference compound] | § (pIC50<6.3) | 

From patent US20260337208A1, “HETEROCYCLIC DERIVATIVES AS JANUS KINASE INHIBITORS” (CHIESI FARMACEUTICI S.P.A., priority 2022, published 2026)
